Here are results for eight molecules from patent publication US20130345231A1, “ANTICANCER THERAPEUTIC AGENTS” (INDIANA UNIVERSITY RESEARCH AND TECHNOLOGY CORPORATION, priority 2011, published 2013).

Holding throughout (format): cell-based
For one data set, the system named is Panc-1 and Paca2 cells. As to the kind of experiment: MTT relative cytotoxicity toward pancreatic cancer lines (statements on both lines together). The following applies: 72 hours; for cytotoxicity toward pancreatic cancer lines: 12.5, 25 and 50 μM. As to the method: (§1) FIG. 7: Relative cytotoxicity of the AOH compounds docking with caPCNA toward cultured Panc-1 (A) and Paca2 (B) cells. Relative cytotoxicity was determined by a colorimetric assay (MTT) measuring cell viability following a 72 hour incubation with the compounds indicated. Cells were exposed to DMSO/saline (series 1) and 12.5 (series 2) 25 (series 3) and 50 (series 4) μM of the indicated drug dissolved in DMSO for 72 hours prior to performing the MTT assay.

Another data set deals with Panc-1 cells. The method, then: as §1
(§2) FIG. 8: 50 μM AOH-18, AOH-20, and AOH-39 were individually incubated with exponentially growing Panc-1 or Paca-2 cells for 72 hours, after which cell viability was determined colorimetrically using MTT.

The subject of the next data set is Paca-2 cells. As to the kind of experiment: MTT cell viability assay, Paca-2 cells, 72 hours. As to the method: as §1, §2
On the technique in general: Formazan colour is commonly taken as a measure of viable cells.

The next data set has as its system MCF-7 cells. The following applies: for selectivity of toxicity, breast cancer versus non-malignant breast cells: at concentrations lower than 100 μM (10 μM), MCF7 vs MCF-10A. As to the method: The effect that a set of in silico selected compounds had on the viability of exponentially growing cultured malignant (MCF-7) and non-malignant (MCF-10A) breast cells was determined. Exponentially growing malignant (MCF-7) and non-malignant (MCF-10A) breast cells were incubated for 72 hours with 100 μM of the indicated compounds in growth media, before cell viability was determined colorimetrically using the MTT assay. […] Relative viability was determined by comparison to the viability of the cell cultures incubated in the presence of PBS/DMSO (vehicle) control instead of compound. […] Also were identified compounds that killed: both cell types with nearly equal preference; compounds that had little or no cytotoxic effect on either cell type, and compounds that preferentially killed the non-malignant breast cells.
The short- and long-term cytotoxic effects of each of the AOH compounds was determined essentially as described below for the caPeptide and related peptides, except that the initial cell based screening was determined by incubating cells for 72 hours with 100 μM of each compound. Compounds were classified into specific categories: 1) compounds that preferentially kill breast cancer but not non-malignant breast cells; 2) compounds that appear to kill both malignant and non-malignant breast cells without preference; 3) compounds that appear to have little or no toxicity toward either type of breast cell; and 4) compounds that appear to preferentially kill non-malignant breast cells. For those compounds falling into the first category, the short-term MTT viability assay was repeated using 10 μM of the selected AOH compound.
The MTT ((3-(4,5-Dimethylthiazol-2-yl)-2,5-diphenyltetrazolium bromide) assay was performed to determine the viability of cells exposed for various lengths of time to various peptide constructs containing or related to caPeptide. This assay determines the short-term affect each of the peptides has on cell viability. caPeptide's sequence is LGIPEQEY. The MTT assay was used to monitor the cytotoxic effect various caPeptides had on the viability of human MCF-7, MDA-MB436, HCC1937^(BRCA−) and HCC1937^(BRCA+) breast cancer cells. HCC1937^(BRCA−) cells harbor a hereditary mutation in the BRCA1 gene, that results in a non-functional gene product. These cells, are the parental wild-type to the HCC1937^+ cells, which express a fully functional BRCA1 human transgene. The assay was performed by seeding equal numbers of cells (5×10^3) into each of the wells of 96-well tissue culture plates for an overnight incubation to allow the cells to attach to the plates. In the morning, the cells in each of 3 individual wells were exposed to each of the various peptide constructs at the various concentrations indicated in the figures, for periods of 24, 48 and 72 hours. The MTT assay was then performed on the cells in each of the wells to determine the relative degree to which specific peptides were cytotoxic to each of these breast cancer cell lines. Percent viability at the end of the assay we determined colorimetrically by measuring the absorbance at 405 nm of the assay products formed in each well, averaging them, and then comparing the average absorbance of these assay products formed at each individual time period for each specific concentration of a specific peptide examined to the average absorbance of the 3 wells used to determine the viability of untreated cells exposed to PBS in place of peptide. These wells containing the PBS treated cells were assigned a relative viability of 100%, based upon the average absorbance of the reaction product formed in these wells, and the viability of the cells exposed to the various peptides under specific assay conditions was determined as a percentage of the absorbance produced by these PBS treated cells.

For `CCNC(C)c1nc2ccccc2c(=O)n1Cc1ccccc1` (stereo not shown) [AOH-1], in the data set on Panc-1 and Paca2 cells, the “cytotoxicity toward pancreatic cancer lines” value is given as “concentration dependent cytotoxicity”.

Take `Cc1ccc(-n2c(C(C)N3CCNC(C)C3)nc3ccccc3c2=O)cc1` (stereo not shown) [AOH-16]: the “cytotoxicity toward pancreatic cancer lines” value with Panc-1 and Paca2 cells is listed as “concentration dependent cytotoxicity”.

For the molecule `CCn1c2ccccc2c2cc(CNCc3ccccc3)ccc21` [AOH-18], the LC50 result with Panc-1 cells and in the data set on Paca-2 cells was “not achieved over the concentration range tested” throughout. Besides, the “relative sensitivity of MCF-7 cells among compounds” value with MCF-7 cells (72 hours, MTT, rank by LC50) is listed as “most sensitive”. The “selectivity of toxicity, breast cancer versus non-malignant breast cells” value with MCF-7 cells is on record as “selectively toxic”. Also, the “loss in viability of both pancreatic cell lines” value in the data set with Panc-1 and Paca2 cells (at the MCF-7 LC50 concentration (~3 μM)) was “little or no loss in viability”.

`CC(C)(C)c1ccc(CNC2CCN(Cc3ccccc3)CC2)cc1` [AOH-20]: the LC50 entry in the data set on Panc-1 cells and in the data set with Paca-2 cells was “not achieved over the concentration range tested” each time. Besides, the CC50 – broadly, the concentration that lowers cell viability or growth by half – in the data set on MCF-7 cells was in the range of 3 to 40 µM. Moreover, the “selectivity of toxicity, breast cancer versus non-malignant breast cells” value in the data set on MCF-7 cells was “selectively toxic”.

On to `CCCCNC(=O)c1cc2occc2n1Cc1cc(C)ccc1C` [AOH-34], for which the “cytotoxicity toward pancreatic cancer lines” value with Panc-1 and Paca2 cells was “concentration dependent cytotoxicity”.

`CCCCNC(=O)c1cc2oc(C)cc2n1Cc1cc(C)ccc1C` [AOH-36] had a CC50 with MCF-7 cells of 3 to 40 µM.

In the case of `Cc1nc(C)c(Cc2ccccc2F)c(N2CCN(CC(O)C(C)C)CC2)n1` (stereo not shown) [AOH-52], in the data set with Panc-1 and Paca2 cells, the “cytotoxicity toward pancreatic cancer lines” value was “concentration dependent cytotoxicity”.

In the data set on MCF-7 cells, `CCN(C(=O)Nc1cccc(C(F)(F)F)c1)C(C)c1nc2ccccc2c(=O)n1-c1ccc(F)cc1` (stereo not shown) [AOH-59] gave a CC50 of 3 to 40 µM. In the data set on Panc-1 and Paca2 cells, the “cytotoxicity toward pancreatic cancer lines” value is given as “concentration dependent cytotoxicity”.
